Results as given in PubChem BioAssay AID179 (DTP/NCI, 2004).
Calls of active or inactive are those of the source.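 The calls were made as follows: active = compounds giving half or more protection of infected cells from virus-caused growth loss, again on retest; inactive = the rest.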 Where a SMILES comes first, the peptide text is derived from it. Bridges are numbered along the chain shown (N, C = ends). Roman numbers before positions name the chains, in order. The star is where a group is joined. Cbz = O=C(OCc1ccccc1)*

Test system: CEM cells HIV-1 protection, formazan growth assay
Assay: NCI AIDS Antiviral Assay
Conditions: for IC50: measured here: growth of uninfected CEM cells
How it was run: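 Soluble formazan readout of cell growth; CEM cells ± HIV-1; 5 drug concs. ≥50% protection → retest; ≥50% again = moderately active; reproducible 100% = confirmed active.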

| Compound | EC50 | IC50 | outcome |
| --- | --- | --- | --- |
| N#CCCN(CCC#N)c1ccc(/C=C2\N=C(c3ccccc3)N(NC(=O)c3ccncc3)C2=O)cc1 | > 200 µM | 191 µM |  |
| Oc1ccccc1C=NCc1ccco1 |  |  | inactive |
| CCOC(=O)c1csc(-c2nc(CCNC(=O)c3ccccc3)sc2Cl)n1 | > 85.1 µM | 44.7 µM |  |
| O=C1c2c(O)ccc(O)c2C(=O)c2c(NCCCCCO)ccc(NCCCCCO)c21 |  |  | inactive |
| O=C1CC2(CC=CCC23OCCO3)CC(CI)O1 (stereo unspecified) | > 200 µM | > 200 µM |  |
| CCOC(=O)NC(Nc1cc(Cl)ccc1OC)(C(F)(F)F)C(F)(F)F | > 200 µM | 102 µM |  |
| O=c1ccc2cc(Cl)ccc2o1 | > 75.9 µM | > 75.9 µM |  |
| COC1=NS(=O)(=O)C2CCCCCCC2O1 (stereo unspecified) | > 1000 µM | > 1000 µM |  |
| CCOC(=O)/C(=C/c1cccc(C#N)c1)N(CC)CC | > 661 µM | 347 µM |  |
| Cc1ncc(CCl)c2c1OC(C)(C)OC2 | > 676 µM | 7.94 µM |  |
| NC(=S)NN=C(C1CC1)C1CC1 | > 200 µM | > 200 µM |  |
| OC1COCOC1C(O)C1OCOCC1O (stereo unspecified) | > 200 µM | > 200 µM |  |
| CCOC(=O)C(Cc1ccc(O)cc1)NC(=O)C(CSSCC(NC(=O)OCc1ccccc1)C(=O)NC(Cc1ccc(O)cc1)C(=O)OCC)NC(=O)OCc1ccccc1 (stereo not drawn) (I: Cbz-Cys-Tyr-OEt / II: Cbz-Cys-Tyr-OEt; disulfide I:1-II:1; configuration not given here) | > 100 µM | 15.5 µM |  |
| Cn1c(=O)n2n(c1=O)[C@@H](c1ccccc1)[C@H]2c1ccccc1 | > 200 µM | 91.2 µM |  |
| C=C[C@]1(O[Si](C)(C)C)C[C@@]2(C(=O)OCC)C(O)C(=O)N3CCc4cc(OC)c(OC)cc4[C@]312 (stereo partly specified) | > 200 µM | > 200 µM |  |
| O/N=C(\CC(O)(C(F)(F)F)C(F)(F)F)c1cccc(Cl)c1 | > 200 µM | 10.7 µM |  |
| Cc1ccc(C)c2c1C/C(=C\c1ccccc1C(=O)O)C2=O | > 200 µM | 83.2 µM |  |
| c1ccc2c(c1)Nc1nsnc1N2 | > 27.5 µM | 7.08 µM |  |
| Cc1c(-c2ccccc2)[nH]n(C2=NCCN2)c1=O | > 200 µM | 120 µM |  |
| CC(NC(CC12CC3CC(CC(C3)C1)C2)C(N)=O)c1ccccc1 (stereo unspecified) | > 200 µM | 34.7 µM |  |
| O=C1CCCC/C1=C1/SC(=Nc2ccccc2)C(=Nc2ccccc2)N1c1ccccc1 | > 200 µM | > 200 µM |  |
| COc1ccc(NC(=O)C(=O)Cc2ccc([N+](=O)[O-])c([N+](=O)[O-])c2CC(=O)C(=O)Nc2ccc(OC)cc2OC)c(OC)c1 | > 407 µM | 186 µM |  |

| Compound | EC50 | IC50 | outcome |
| --- | --- | --- | --- |
| Cc1cn(C2CC3OP(=O)(OCc4ccccc4)OCC3O2)c(=O)[nH]c1=O (stereo unspecified) | > 3.63 µM | > 3.63 µM |  |
| CC(=O)C(C(=O)CCSCCO)C(SCCO)c1ccc(Cl)c(Cl)c1 (stereo unspecified) | > 200 µM | 10.5 µM |  |
| CO[C@H]1C[C@H](n2cc(C)c(=O)[nH]c2=O)O[C@@H]1CO | > 200 µM | > 200 µM |  |
| CC(=O)OC1CC2CCC3C(CCC4(C)C3CC([N+]3(C)CCCCC3)C4OC(C)=O)C2(C)CC1[N+]1(C)CCCCC1 (stereo unspecified) | > 200 µM | > 200 µM |  |
| Cc1ccc(C2SC(N)=Nc3c2c(C)nn3C(=O)c2ccccc2O)cc1 (stereo unspecified) | > 20 µM | 0.603 µM |  |
| CCOP(C)(=O)C(N)Cc1ccc(OC)c(OC)c1 (stereo unspecified) | > 200 µM | > 200 µM |  |
| COc1ccccc1N1C(=O)/C(=C/c2ccc(N(CCC#N)CCC#N)cc2C)N=C1c1cc([N+](=O)[O-])ccc1Cl |  |  | inactive |
| COC(=O)C(=O)C(C(=O)C(=O)Nc1ccc([N+](=O)[O-])cc1C#N)c1nc2ccc([N+](=O)[O-])cc2[nH]c1=O (stereo unspecified) | > 490 µM | 209 µM |  |
| O=c1n(-c2ccccc2)c(=O)n2n1C1C3C4CCC1C4(Cl)C32 (stereo unspecified) | > 40.7 µM | > 40.7 µM |  |
| Cc1[nH]c(=O)nc2c1C(NCCCN(C)C)c1cc(Cl)ccc1N2 (stereo unspecified) | > 200 µM | 8.91 µM |  |
| COc1cc(-c2cc(=O)c3c(O)cc(O)cc3o2)cc(OC)c1OC | > 64.6 µM | > 64.6 µM |  |
| CCOC(=O)C(NC(=O)Nc1ccccc1F)(OC)C(F)(F)F (stereo unspecified) | > 200 µM | > 200 µM |  |
| COc1cc2c(cc1OC)C(=O)/C(=C/c1ccc([N+](=O)[O-])cc1)CC2 | 155 µM | > 200 µM |  |
| CCOC(=O)/C=C/c1nc(C#N)c(N)o1 | > 200 µM | 102 µM |  |
| N#Cc1ccc(C=C2C(=O)NC(=O)NC2=O)cc1 | > 209 µM | 107 µM |  |
| [N-]=N[N+]#I1OC(C(F)(F)F)(C(F)(F)F)c2ccccc21 |  |  | inactive |
| N=c1oc2ccc(Cl)cc2cc1C(=O)NCc1ccccc1 | > 200 µM |  |  |
| O=C1N=C2SC(=S)NC(=S)N2NC12c1ccccc1-c1ccccc12 | > 200 µM | 32.4 µM |  |
| Cc1cc(Cl)c(O)c(-c2cc(-c3ccc([N+](=O)[O-])cc3)c3c(N)[nH]c(=O)nc3n2)c1 | > 200 µM | 5.25 µM |  |
| CCOc1ccc(/C=C(\C#N)c2cccc(Cl)c2)cc1 | > 200 µM | 8.51 µM |  |
| CN(C)CC/C(=N\Nc1ccc(Cl)cc1Cl)c1ccccc1 |  |  | inactive |
| COC1=CC(=O)C(Br)=CC1=O |  |  | inactive |

| Compound | EC50 | IC50 | outcome |
| --- | --- | --- | --- |
| Cc1ccc(N(C(=O)CC(=O)N/N=C/c2ccccc2O)C(=O)c2ccccc2)cc1 |  |  | inactive |
| C1CN(SSN2CCOCC2)CCO1 | > 200 µM | 126 µM |  |
| COc1ccc2c(=O)c(C)c(/C=C/c3ccco3)oc2c1 | > 158 µM | 27.5 µM |  |
| CCOC(OCC)c1ccc(-n2c(N)c(C#N)cnc2=S)c2c1OC2=NC=C(C#N)C#N | > 151 µM | > 151 µM |  |
| Cc1ccc(S(=O)OCC23CC4CC(CC(C4)C2)C3)cc1 (stereo unspecified) |  |  | inactive |
| Cc1nnc(NS(=O)(=O)c2ccc(N=Nc3cc4ccccc4c(C(=O)O)c3O)cc2)s1 | > 200 µM | 22.9 µM |  |
| CC(=O)OCC1OC(n2ccc(-n3cncn3)nc2=O)CC1N=[N+]=[N-] (stereo unspecified) | 87.1 µM | > 200 µM |  |
| CCN(CC)CCn1ncc2c3c(=O)c4cccnc4n(CCN(CC)CC)c3ccc21 | > 200 µM | 3.47 µM |  |
| CSc1nc(=O)cnn1C | > 200 µM | > 200 µM |  |
| Cn1c(=O)c2ncc(N)nc2n(C)c1=O | > 100 µM | > 100 µM |  |
| Cc1noc(NS(=O)(=O)c2ccc(N=c3c4ccccc4n(-c4ccccc4)c4ccccc34)cc2)c1C |  |  | inactive |
| C[n+]1cccc(O)c1 |  |  | inactive |
| O=C(O)c1ccc(CS(=O)(=O)c2ccccc2)c([N+](=O)[O-])c1 | > 776 µM | 575 µM |  |
| CCN1C(=O)N(C)C(O)c2c1nc1ccccn1c2=O (stereo unspecified) | > 182 µM | 11.5 µM |  |
| CCN1CN(c2ccccc2)C2(CCN(CC3COc4ccccc4O3)CC2)C1=O (stereo unspecified) | > 200 µM | 115 µM |  |
| C[Si](C)(C)C1=C2C(=O)c3ccccc3C(=O)C2=C([Si](C)(C)C)[C@@H]2CCCC[C@H]12 | > 50.1 µM | > 50.1 µM |  |
| O=C(CCc1cc(-c2ccc(F)cc2)n[nH]1)N(Cc1ccccc1)Cc1ccccc1 | > 17.4 µM | > 17.4 µM |  |
| N/C(=N\C(O)C(Cl)(Cl)Cl)SCNC(=O)NCS/C(N)=N/C(O)C(Cl)(Cl)Cl (stereo unspecified) | > 158 µM | 126 µM |  |
| O=S(=O)(c1ccccc1)C1CN2OC1(S(=O)(=O)c1ccccc1)CC21CCCCC1 (stereo unspecified) |  |  | inactive |
| c1ccc(C2(c3ccccc3)SCCCS2)cc1 | > 19.1 µM | > 19.1 µM |  |
